Laboratory results published in patent publication US6407204B1 (priority 1997, dated 2002).

Tests used:
[1] = test system: Male Sprague-Dawley rats; settings: rat, in vivo
[2] = test system: Male Sprague-Dawley rats; settings: rat, in vivo; remark: listed apart in the source

Row | Substance | ED50 in phase II [1] | analgesic doses in the formalin test [1] | effect on phase I flinches [1] | effect on phase II flinches [1] | potency in phase II (tonic pain) versus phase I (acute pain) [1] | overt signs of toxicity [2] | dose required to induce analgesic effects in both acute and tonic pain portions [1] | effect of the single agent alone [1] | rats showing signs of incoordination [2]
1 | Gly-Glu-Gla-Gla-Leu-Gln-Gla-Asn-Gln-Gla-Leu-Ile-Arg-Gla-Lys-Ser-Asn-NH2 [Conantokin G] | 0.15 µg | 0.05 to 1 µg | without significantly decreasing | nearly abolished | very potent | no overt signs of toxicity | – | – | –
2 | Gly-Glu-Gla-Gla-Val-Ala-Lys-Met-Ala-Ala-Glu-Leu-Ala-Arg-Glu-Asn-Ile-Ala-Lys-Gly-Cys-Lys-Val-Asn-Cys-Tyr-Pro [Conantokin R] | – | – | – | – | – | – | more than 3.3 μg | no effect | One of six rats
